Assay results: ChEMBL document CHEMBL1201862, “PubChem BioAssay data set” (2004)
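Dose response: 5 concentrations. Exposure: 48 h. Format: 96-well plates. Endpoint: linear interpolation; highest concentration if not reached. At the GI50, growth is halved.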 Activity calls are given as the source filed them. No stated cut-off is given here; in the data, active = GI50 up to about 1.1 µM and inactive = higher.

What was measured:
Assay in all cases: inhibition of tumour cell growth, NCI panel, 48 h
786-0 = tested on: 786-0
CCRF-CEM = tested on: CCRF-CEM
COLO 205 = tested on: COLO 205
HCT-15 = tested on: HCT-15
HL-60 = tested on: HL-60
HOP-92 = tested on: HOP-92
KM12 = tested on: KM12
LOX IMVI = tested on: LOX IMVI
MOLT-4 = tested on: MOLT-4
RPMI-8226 = tested on: RPMI-8226
SK-MEL-28 = tested on: SK-MEL-28
SK-MEL-2 = tested on: SK-MEL-2
SK-MEL-5 = tested on: SK-MEL-5
SK-OV-3 = tested on: SK-OV-3
SN12C = tested on: SN12C
TK-10 = tested on: TK-10
U-251 = tested on: U-251
UACC-257 = tested on: UACC-257
UACC-62 = tested on: UACC-62
Malme-3M = tested on: Malme-3M

Row | SMILES | GI50 (786-0) | GI50 (CCRF-CEM) | GI50 (COLO 205) | GI50 (HCT-15) | GI50 (HL-60) | GI50 (HOP-92) | GI50 (KM12) | GI50 (LOX IMVI) | GI50 (MOLT-4) | GI50 (RPMI-8226) | GI50 (SK-MEL-28) | GI50 (SK-MEL-2) | GI50 (SK-MEL-5) | GI50 (SK-OV-3) | GI50 (SN12C) | GI50 (TK-10) | GI50 (U-251) | GI50 (UACC-257) | GI50 (UACC-62) | GI50 (Malme-3M)
1 | COc1cc(/C=C2\N=C(c3ccccc3)N(c3ccc(C(=O)c4ccccc4)cc3N3C(=O)/C(=C/c4ccc(O)c(OC)c4)N=C3c3ccccc3)C2=O)ccc1O | 18.9 µM (inactive) | 5.45 µM (inactive) | 17.9 µM (inactive) | 5.28 µM | 5.09 µM (inactive) | 22.7 µM (inactive) | 8.73 µM (inactive) | 10.5 µM (inactive) | 3.3 µM (inactive) | 8.51 µM (inactive) | 21.2 µM (inactive) | 13.4 µM (inactive) | 7.76 µM (inactive) | 12.1 µM (inactive) | 17.9 µM (inactive) | 18.5 µM (inactive) | 9.79 µM (inactive) | 16.8 µM (inactive) | 9.62 µM (inactive) | –
2 | Brc1ccc(N2C[N+](c3ccc(Br)cc3)=NC(c3ccccc3)=N2)cc1.[O-][Cl+3]([O-])([O-])[O-] | > 100 µM (inactive) | – | 63.4 µM (inactive) | > 100 µM | 30.3 µM (inactive) | 77.1 µM (inactive) | > 100 µM (inactive) | – | 43 µM (inactive) | 49.9 µM (inactive) | > 100 µM (inactive) | 46.6 µM (inactive) | 76.4 µM (inactive) | > 100 µM (inactive) | > 100 µM (inactive) | > 100 µM (inactive) | > 100 µM (inactive) | > 100 µM (inactive) | > 100 µM (inactive) | > 100 µM (inactive)
3 | COC(=O)/C(=C/c1ccc(OC)cc1)C(C(=O)O)=C1CCCCC1 | > 100 µM (inactive) | > 100 µM (inactive) | > 100 µM (inactive) | > 100 µM | > 100 µM (inactive) | > 100 µM (inactive) | > 100 µM (inactive) | > 100 µM (inactive) | > 100 µM (inactive) | > 100 µM (inactive) | – | > 100 µM (inactive) | > 100 µM (inactive) | > 100 µM (inactive) | > 100 µM (inactive) | > 100 µM (inactive) | > 100 µM (inactive) | > 100 µM (inactive) | > 100 µM (inactive) | –
4 | COc1ccc(C(C)c2cc3c(cc2O)OCO3)cc1 (centres undefined) | 17.9 µM (inactive) | – | 14.3 µM (inactive) | 7.33 µM | 13.2 µM (inactive) | 16.3 µM (inactive) | 12.9 µM (inactive) | 13.2 µM (inactive) | 9.02 µM (inactive) | 16.8 µM (inactive) | 16.8 µM (inactive) | 14.9 µM (inactive) | 14.8 µM (inactive) | 19.7 µM (inactive) | 18.6 µM (inactive) | 16.3 µM (inactive) | 15.1 µM (inactive) | 15.6 µM (inactive) | 12.1 µM (inactive) | –
5 | CC(C)SC(C)(NC(=O)C1C(C)(C)CCC1(C)C)C(=O)O (centres undefined) | > 100 µM (inactive) | > 100 µM (inactive) | > 100 µM (inactive) | > 100 µM | > 100 µM (inactive) | > 100 µM (inactive) | – | > 100 µM (inactive) | > 100 µM (inactive) | > 100 µM (inactive) | > 100 µM (inactive) | > 100 µM (inactive) | > 100 µM (inactive) | > 100 µM (inactive) | > 100 µM (inactive) | > 100 µM (inactive) | > 100 µM (inactive) | – | – | –
6 | CCOP(=O)(CN1CCNCCNCC1)OCC | > 100 µM (inactive) | > 100 µM (inactive) | > 100 µM (inactive) | > 100 µM | 92.7 µM (inactive) | > 100 µM (inactive) | > 100 µM (inactive) | > 100 µM (inactive) | > 100 µM (inactive) | > 100 µM (inactive) | > 100 µM (inactive) | > 100 µM (inactive) | > 100 µM (inactive) | > 100 µM (inactive) | > 100 µM (inactive) | > 100 µM (inactive) | > 100 µM (inactive) | > 100 µM (inactive) | > 100 µM (inactive) | –
7 | CCC(=O)O[C@H]1CC[C@H]2[C@@H]3CCC4=C/C(=N/NC(=O)c5cccc6c(=O)c7ccccc7[nH]c56)CC[C@]4(C)[C@H]3CC[C@]12C | 5.11 µM (inactive) | > 25 µM (inactive) | > 25 µM (inactive) | > 25 µM | – | > 25 µM (inactive) | > 25 µM (inactive) | 10.1 µM (inactive) | > 25 µM (inactive) | > 25 µM (inactive) | > 25 µM (inactive) | > 25 µM (inactive) | > 25 µM (inactive) | > 25 µM (inactive) | > 25 µM (inactive) | > 25 µM (inactive) | > 25 µM (inactive) | > 25 µM (inactive) | > 25 µM (inactive) | –
8 | CC(=O)O[C@@H]1C=C(C)[C@H](CBr)O[C@@]2(C)CC[C@H](Br)C(C)(C)[C@H]12 | > 100 µM (inactive) | 19.4 µM (inactive) | > 100 µM (inactive) | > 100 µM | 91.2 µM (inactive) | > 100 µM (inactive) | > 100 µM (inactive) | > 100 µM (inactive) | 77.6 µM (inactive) | > 100 µM (inactive) | > 100 µM (inactive) | > 100 µM (inactive) | > 100 µM (inactive) | > 100 µM (inactive) | > 100 µM (inactive) | > 100 µM (inactive) | > 100 µM (inactive) | > 100 µM (inactive) | > 100 µM (inactive) | –
9 | c1cc(-c2cscc2-c2ccsc2)cs1 | 72.1 µM (inactive) | 52.6 µM (inactive) | > 100 µM (inactive) | 29.4 µM | 30.4 µM (inactive) | > 100 µM (inactive) | 14.8 µM (inactive) | 37.6 µM (inactive) | 30.1 µM (inactive) | 34.9 µM (inactive) | 98.4 µM (inactive) | 4.65 µM (inactive) | 31 µM (inactive) | > 100 µM (inactive) | > 100 µM (inactive) | 88.5 µM (inactive) | > 100 µM (inactive) | 58.2 µM (inactive) | 47.3 µM (inactive) | –
10 | Cc1cn(CCOCCOC(=O)NC(CCCNC(=N)N)C(=O)O)c(=O)[nH]c1=O (centres undefined) | > 100 µM (inactive) | > 100 µM (inactive) | > 100 µM (inactive) | > 100 µM | > 100 µM (inactive) | > 100 µM (inactive) | > 100 µM (inactive) | > 100 µM (inactive) | > 100 µM (inactive) | > 100 µM (inactive) | > 100 µM (inactive) | > 100 µM (inactive) | – | > 100 µM (inactive) | > 100 µM (inactive) | > 100 µM (inactive) | > 100 µM (inactive) | > 100 µM (inactive) | > 100 µM (inactive) | –
11 | O=c1oc2ccccc2cc1-c1csc(Nc2ccc(F)cc2)n1 | 1.79 µM (inactive) | 2.77 µM (inactive) | 4.47 µM (inactive) | 2.86 µM | 4.59 µM (inactive) | 6.53 µM (inactive) | 5.5 µM (inactive) | 4.7 µM (inactive) | 5.18 µM (inactive) | 0.216 µM (active) | 0.382 µM (active) | 14.8 µM (inactive) | 10.4 µM (inactive) | 5.77 µM (inactive) | 3.01 µM (inactive) | 2.98 µM (inactive) | 2.83 µM (inactive) | 14.8 µM (inactive) | 12.6 µM (inactive) | –
12 | CCCCC1Cc2ccccc2-c2nc3ccccc3n21 (centres undefined) | 25.2 µM (inactive) | 0.0153 µM (active) | – | 12.6 µM | < 0.01 µM (active) | 16.4 µM (inactive) | 15.4 µM (inactive) | 16 µM (inactive) | 13.6 µM (inactive) | 12.1 µM (inactive) | 16.7 µM (inactive) | 16.4 µM (inactive) | 14.6 µM (inactive) | 20.5 µM (inactive) | – | 17.4 µM (inactive) | 16.4 µM (inactive) | 17.5 µM (inactive) | – | –
13 | Nc1ccc2nc(-c3cccc(Cl)c3)cc(O)c2c1 | 4.24 µM (inactive) | 2.14 µM (inactive) | 4.81 µM (inactive) | 3.19 µM | – | 2.84 µM (inactive) | 4.23 µM (inactive) | – | 3.55 µM (inactive) | – | 7.91 µM (inactive) | – | 3.58 µM (inactive) | 4.82 µM (inactive) | 8.38 µM (inactive) | 2.65 µM (inactive) | 3.2 µM (inactive) | > 100 µM (inactive) | 3.14 µM (inactive) | 3.26 µM (inactive)
14 | O=c1ccccc2cccc(O)c12 | > 100 µM (inactive) | > 100 µM (inactive) | > 100 µM (inactive) | > 100 µM | > 100 µM (inactive) | 84.1 µM (inactive) | – | > 100 µM (inactive) | > 100 µM (inactive) | > 100 µM (inactive) | > 100 µM (inactive) | – | > 100 µM (inactive) | > 100 µM (inactive) | > 100 µM (inactive) | > 100 µM (inactive) | > 100 µM (inactive) | > 100 µM (inactive) | > 100 µM (inactive) | –
15 | O=C1c2ccccc2C(=O)N1n1c(Cc2ccc([N+](=O)[O-])cc2)n[nH]c1=O | > 100 µM (inactive) | – | – | > 100 µM | – | > 100 µM (inactive) | > 100 µM (inactive) | – | > 100 µM (inactive) | > 100 µM (inactive) | > 100 µM (inactive) | 75.2 µM (inactive) | > 100 µM (inactive) | – | > 100 µM (inactive) | > 100 µM (inactive) | > 100 µM (inactive) | > 100 µM (inactive) | 36.3 µM (inactive) | > 100 µM (inactive)
16 | O=C1OC(c2ccccc2)N/C1=C\c1ccc2c(c1)OCO2 (centres undefined) | > 100 µM (inactive) | 33.6 µM (inactive) | > 100 µM (inactive) | > 100 µM | 0.219 µM (active) | > 100 µM (inactive) | 46.7 µM (inactive) | 53.3 µM (inactive) | > 63.1 µM (inactive) | 25.2 µM (inactive) | 87.5 µM (inactive) | > 77.1 µM (inactive) | > 55.8 µM (inactive) | > 100 µM (inactive) | > 100 µM (inactive) | > 100 µM (inactive) | 59.3 µM (inactive) | > 100 µM (inactive) | > 100 µM (inactive) | –
